Assay results from patent US7351709B2, “Estrogen receptor ligands” (Wyeth, priority 2004, dated 2008).
Like-named read-outs stand apart in the source and are kept apart here.

Key:
[1] = target: T1, ERα (Homo sapiens, UniProt P03372); experiment: IL-6 assay: inhibition of IL-1β induced IL-6 expression in ERα infected HAECT-1 cells; format: cell-based; details: for IC50: Ad5-wt-ER infected HAECT-1 cells, IL-1β stimulated, IL-6 by ELISA; for ER/IL-6 % E2: efficacy relative to the maximal inhibition observed with E2
T1 construct: expressed in transfected cells; host or cells: HAECT-1 cells infected with Ad5-wt-ER adenovirus
T1 sequence (P03372 1-595): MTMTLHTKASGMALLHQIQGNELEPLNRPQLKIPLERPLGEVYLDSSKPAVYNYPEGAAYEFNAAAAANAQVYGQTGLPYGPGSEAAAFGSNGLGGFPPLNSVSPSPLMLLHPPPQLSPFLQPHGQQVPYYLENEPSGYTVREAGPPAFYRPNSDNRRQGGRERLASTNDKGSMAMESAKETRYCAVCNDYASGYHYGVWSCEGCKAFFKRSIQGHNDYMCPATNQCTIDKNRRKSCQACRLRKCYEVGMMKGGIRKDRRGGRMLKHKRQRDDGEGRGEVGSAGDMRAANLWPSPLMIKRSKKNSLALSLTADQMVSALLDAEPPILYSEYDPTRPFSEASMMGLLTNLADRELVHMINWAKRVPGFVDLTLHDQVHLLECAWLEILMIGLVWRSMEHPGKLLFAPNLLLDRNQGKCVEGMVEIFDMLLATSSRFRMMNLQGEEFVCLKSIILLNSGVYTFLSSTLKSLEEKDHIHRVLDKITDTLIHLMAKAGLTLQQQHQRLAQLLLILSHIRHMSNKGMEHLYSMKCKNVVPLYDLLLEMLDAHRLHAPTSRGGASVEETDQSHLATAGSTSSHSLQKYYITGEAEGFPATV
Method: (§1) ERα infected HAECT-1 cells or control cells were thawed, diluted 42× in warm EBM-BSA, plated into 96-well plates at 0.1 ml/well and incubated for 4 h at 34° C. Test compounds were added to the cells as 2× stocks in EBM-BSA containing 2 ng/ml IL-1β (R&D Systems) and plates were returned to the incubator (34° C.). After 15-20 h, 100 μl aliquots of media were removed from the cells and assayed for IL-6 content using a BioSource human IL-6 ELISA Kit. Cells were subsequently washed with 300 μl of Dulbecco's phosphate buffered saline and lysed in 50 μl of Cell Culture Lysis Reagent (Promega). Creatine kinase was determined from the rate of increase in A340 following addition of 100 μl of CK assay reagent (Sigma, cat. No 47-10) to the remainder of the cell lysate.
(§2) For IC50 and EC50 calculations, mean IL-6 or CK values versus log10 of the compound concentration were fitted to a four parameter logistic equation. The IC50/EC50 value, ‘Hill slope’, upper and lower limits of the curve were iteratively estimated.

[2] = target: T1, ERα; experiment: Creatine kinase (CK) assay in ERα infected HAECT-1 cells; format: cell-based; details: for ER/CK % E2: efficacy relative to the maximal stimulation observed with E2
Method: as §1, §2

[3] = Ad5-wt-ER infected HAECT-1 cells, creatine kinase in cell lysate

Row | IC50 [1] [µM] | ER/IL-6 % E2 [1] [% E2] | EC50 [2, 3] [µM] | ER/CK % E2 [2] [% E2] | EC50 ([2]; cells of the EC50 column printed in uM, read-out: ER/CK EC50) [µM] | ER/CK EC50 (nM) [2, 3] | Compound
1 | 0.02 | 96 | 0.169 | 36 |  |  | CC[C@@H]1C(=O)N(CC)c2ccc(F)cc2N1C(=O)c1ccc(O)cc1O [Example 18, (3R)-4-(2,4-Dihydroxybenzoyl)-1,3-diethyl-6-fluoro-3,4-dihydroquinoxalin-2(1H)-one]
2 | 0.0054 | 92 | 0.05 | 44 |  |  | CC[C@@H]1C(=O)N(C)c2ccc(F)cc2N1C(=O)c1ccc(O)cc1O [Example 19, (3R)-4-(2,4-Dihydroxybenzoyl)-3-ethyl-6-fluoro-1-methyl-3,4-dihydroquinoxalin-2(1H)-one]
3 | 0.681 | 108 |  | 35 | > 3 |  | CC[C@H]1C(=O)N(C)c2ccc(F)cc2N1S(=O)(=O)c1ccc(O)cc1 [Example 25, (3S)-3-Ethyl-6-fluoro-4-[(4-hydroxyphenyl)sulfonyl]-1-methyl-3,4-dihydroquinoxalin-2(1H)-one]
4 | 0.339 | 81 |  |  |  | inactive | CC[C@H]1C(=O)N(CC)c2ccc(F)cc2N1S(=O)(=O)c1ccc(O)cc1 [Example 26, (3S)-1,3-Diethyl-6-fluoro-4-[(4-hydroxyphenyl)sulfonyl]-3,4-dihydroquinoxalin-2(1H)-one]
5 | 1.17 | 85 | 0.344 | 20 |  |  | CC[C@H]1C(=O)N(C)c2cc(F)ccc2N1S(=O)(=O)c1ccc(O)cc1 [Example 29, (3S)-3-Ethyl-7-fluoro-4-[(4-hydroxyphenyl)sulfonyl]-1-methyl-3,4-dihydroquinoxalin-2(1H)-one]
6 | 0.738 | 63 | 0.043 | 9 |  |  | CC[C@H]1C(=O)N(CC)c2cc(F)ccc2N1S(=O)(=O)c1ccc(O)cc1 [Example 30, (3S)-1,3-Diethyl-7-fluoro-4-[(4-hydroxyphenyl)sulfonyl]-3,4-dihydroquinoxalin-2(1H)-one]
